# Laboratory results taken from ChEMBL document CHEMBL1201862, “PubChem BioAssay data set” (2004).
#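 Test compounds were applied to cells in 96-well plates for 48 hours at 5 doses. GI50 is the concentration that inhibits growth by half.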 Active and inactive are the calls of the source. Rule as the data show it: active = GI50 up to about 1.1 µM and inactive = higher.
# Columns and labels:
# Assay in all cases: NCI anticancer screen, dose series, 48 h
# 786-0 = system: 786-0
# A549 = system: A549
# ACHN = system: ACHN
# CAKI-1 = system: CAKI-1
# CCRF-CEM = system: CCRF-CEM
# COLO 205 = system: COLO 205
# DLD-1 = system: DLD-1
# DMS-114 = system: DMS-114
# DMS-273 = system: DMS-273
# EKVX = system: EKVX
# HCC 2998 = system: HCC 2998
# HCT-116 = system: HCT-116
# HCT-15 = system: HCT-15
# HL-60 = system: HL-60
# HOP-18 = system: HOP-18
# HOP-62 = system: HOP-62
# HT-29 = system: HT-29
# IGROV-1 = system: IGROV-1
# K562 = system: K562
# KM-20L2 = system: KM-20L2
# KM12 = system: KM12
# LOX IMVI = system: LOX IMVI
# LXFL 529 = system: LXFL 529
# M14 = system: M14
# M19-MEL = system: M19-MEL
# MOLT-4 = system: MOLT-4
# Malme-3M = system: Malme-3M
# NCI-H226 = system: NCI-H226
# NCI-H23 = system: NCI-H23
# NCI-H460 = system: NCI-H460
# NCI-H522 = system: NCI-H522
# OVCAR-4 = system: OVCAR-4
# OVCAR-5 = system: OVCAR-5
# OVCAR-8 = system: OVCAR-8
# RPMI-8226 = system: RPMI-8226
# RXF 393 = system: RXF 393
# SF-268 = system: SF-268
# SF-295 = system: SF-295
# SF-539 = system: SF-539
# SK-MEL-28 = system: SK-MEL-28
# SK-MEL-2 = system: SK-MEL-2
# SK-OV-3 = system: SK-OV-3
# SN12C = system: SN12C
# SNB-19 = system: SNB-19
# SNB-75 = system: SNB-75
# SW-620 = system: SW-620
# TK-10 = system: TK-10
# U-251 = system: U-251
# UACC-257 = system: UACC-257
# UACC-62 = system: UACC-62
# UO-31 = system: UO-31
# XF498 = system: XF498
# A498 = system: A498
# HOP-92 = system: HOP-92
# OVCAR-3 = system: OVCAR-3
# SK-MEL-5 = system: SK-MEL-5
# SNB-78 = system: SNB-78
# SR = system: SR
structure (smiles),measurement,setting,value
COC1CCC(=C2C(=O)OC(C)(C)OC2=O)N1 (stereo unspecified),GI50,786-0,> 100 µM (inactive)
same,GI50,A549,> 100 µM (inactive)
same,GI50,ACHN,> 100 µM (inactive)
same,GI50,CAKI-1,> 100 µM (inactive)
same,GI50,CCRF-CEM,> 100 µM (inactive)
same,GI50,COLO 205,> 100 µM (inactive)
same,GI50,DLD-1,> 100 µM (inactive)
same,GI50,DMS-114,> 100 µM (inactive)
same,GI50,DMS-273,> 100 µM (inactive)
same,GI50,EKVX,> 100 µM (inactive)
same,GI50,HCC 2998,> 100 µM (inactive)
same,GI50,HCT-116,> 100 µM (inactive)
same,GI50,HCT-15,> 100 µM
same,GI50,HL-60,> 100 µM (inactive)
same,GI50,HOP-18,> 100 µM (inactive)
same,GI50,HOP-62,> 100 µM (inactive)
same,GI50,HT-29,> 100 µM (inactive)
same,GI50,IGROV-1,> 100 µM (inactive)
same,GI50,K562,> 100 µM (inactive)
same,GI50,KM-20L2,> 100 µM (inactive)
same,GI50,KM12,> 100 µM (inactive)
same,GI50,LOX IMVI,> 100 µM (inactive)
same,GI50,LXFL 529,> 100 µM (inactive)
same,GI50,M14,> 100 µM (inactive)
same,GI50,M19-MEL,> 100 µM (inactive)
same,GI50,MOLT-4,> 100 µM (inactive)
same,GI50,Malme-3M,> 100 µM (inactive)
same,GI50,NCI-H226,> 100 µM (inactive)
same,GI50,NCI-H23,> 100 µM (inactive)
same,GI50,NCI-H460,> 100 µM (inactive)
same,GI50,NCI-H522,> 100 µM (inactive)
same,GI50,OVCAR-4,> 100 µM (inactive)
same,GI50,OVCAR-5,> 100 µM (inactive)
same,GI50,OVCAR-8,> 100 µM (inactive)
same,GI50,RPMI-8226,> 100 µM (inactive)
same,GI50,RXF 393,> 100 µM (inactive)
same,GI50,SF-268,> 100 µM (inactive)
same,GI50,SF-295,> 100 µM (inactive)
same,GI50,SF-539,> 100 µM (inactive)
same,GI50,SK-MEL-28,> 100 µM (inactive)
same,GI50,SK-MEL-2,> 100 µM (inactive)
same,GI50,SK-OV-3,> 100 µM (inactive)
same,GI50,SN12C,> 100 µM (inactive)
same,GI50,SNB-19,> 100 µM (inactive)
same,GI50,SNB-75,> 100 µM (inactive)
same,GI50,SW-620,> 100 µM (inactive)
same,GI50,TK-10,> 100 µM (inactive)
same,GI50,U-251,> 100 µM (inactive)
same,GI50,UACC-257,> 100 µM (inactive)
same,GI50,UACC-62,> 100 µM (inactive)
same,GI50,UO-31,> 100 µM (inactive)
same,GI50,XF498,> 100 µM (inactive)
COc1cc(CC(=O)c2cc3c(cc2-c2ccccc2)OCO3)cc(OC)c1OC,GI50,786-0,> 100 µM (inactive)
same,GI50,A498,33.3 µM (inactive)
same,GI50,A549,26.1 µM (inactive)
same,GI50,ACHN,6.95 µM (inactive)
same,GI50,CCRF-CEM,13 µM (inactive)
same,GI50,COLO 205,56.4 µM (inactive)
same,GI50,DLD-1,81.1 µM (inactive)
same,GI50,DMS-114,16.6 µM (inactive)
same,GI50,DMS-273,40.2 µM (inactive)
same,GI50,EKVX,10.8 µM (inactive)
same,GI50,HCC 2998,> 100 µM (inactive)
same,GI50,HCT-116,43.9 µM (inactive)
same,GI50,HCT-15,66.5 µM
same,GI50,HL-60,11.1 µM (inactive)
same,GI50,HOP-18,16 µM (inactive)
same,GI50,HOP-62,79.6 µM (inactive)
same,GI50,HOP-92,< 0.01 µM (active)
same,GI50,HT-29,> 100 µM (inactive)
same,GI50,IGROV-1,23.1 µM (inactive)
same,GI50,K562,15.8 µM (inactive)
same,GI50,KM-20L2,96.6 µM (inactive)
same,GI50,KM12,> 100 µM (inactive)
same,GI50,LOX IMVI,0.253 µM (active)
same,GI50,LXFL 529,9.38 µM (inactive)
same,GI50,M14,45.9 µM (inactive)
same,GI50,MOLT-4,17.7 µM (inactive)
same,GI50,Malme-3M,16.9 µM (inactive)
same,GI50,NCI-H226,14 µM (inactive)
same,GI50,NCI-H23,22.9 µM (inactive)
same,GI50,NCI-H460,67.9 µM (inactive)
same,GI50,NCI-H522,18.7 µM (inactive)
same,GI50,OVCAR-3,31 µM (inactive)
same,GI50,OVCAR-4,27.1 µM (inactive)
same,GI50,OVCAR-5,> 100 µM (inactive)
same,GI50,OVCAR-8,58.7 µM (inactive)
same,GI50,RXF 393,30.2 µM (inactive)
same,GI50,SF-268,75.7 µM (inactive)
same,GI50,SF-295,34.5 µM (inactive)
same,GI50,SF-539,17.5 µM (inactive)
same,GI50,SK-MEL-28,58.3 µM (inactive)
same,GI50,SK-MEL-2,44.2 µM (inactive)
same,GI50,SK-MEL-5,6.62 µM (inactive)
same,GI50,SK-OV-3,49.3 µM (inactive)
same,GI50,SN12C,68.7 µM (inactive)
same,GI50,SNB-19,72.3 µM (inactive)
same,GI50,SNB-75,1.18 µM (inactive)
same,GI50,SNB-78,25.8 µM (inactive)
same,GI50,SR,19.1 µM (inactive)
same,GI50,SW-620,43.4 µM (inactive)
same,GI50,TK-10,32.9 µM (inactive)
same,GI50,U-251,71.6 µM (inactive)
same,GI50,UACC-257,23.4 µM (inactive)
same,GI50,UO-31,19.5 µM (inactive)
same,GI50,XF498,17.1 µM (inactive)
